Columns and labels:
Type in all cases: in vivo
[1] = test system: barnyardgrass (Echinochloa crus-galli); assay: Test B pre-/postemergence plant response; conditions: for Barnyardgrass plant response rating: 0 to 100 scale (0 no effect, 100 complete control)
How it was run: (§1)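 Scoring used a 0–100 scale (100 = complete control) by visual comparison with untreated plants after approximately 10 days in the greenhouse. Compounds, in surfactant-containing non-phytotoxic solvent, were sprayed onto soil at planting or onto 2–10 cm seedlings.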

corn (Zea mays) = assay: Test B pre-/postemergence plant response; conditions: for Corn plant response rating: 0 to 100 scale (0 no effect, 100 complete control)
How it was run: as §1

[2] = test system: morningglory (Ipomoea spp.); assay: Test B pre-/postemergence plant response; conditions: for Morningglory plant response rating: 0 to 100 scale (0 no effect, 100 complete control)
How it was run: as §1

[3] = test system: large (Lg) crabgrass (Digitaria sanguinalis); assay: Test B pre-/postemergence plant response; conditions: for Crabgrass, Large plant response rating: 0 to 100 scale (0 no effect, 100 complete control)
How it was run: as §1

[4] = test system: wheat (Triticum aestivum); assay: Test B pre-/postemergence plant response; conditions: for Wheat plant response rating: 0 to 100 scale (0 no effect, 100 complete control)
How it was run: as §1

[5] = test system: pigweed (Amaranthus retroflexus); assay: Test B pre-/postemergence plant response; conditions: for Pigweed plant response rating: 0 to 100 scale (0 no effect, 100 complete control)
How it was run: as §1

[6] = test system: velvetleaf (Abutilon theophrasti); assay: Test B pre-/postemergence plant response; conditions: for Velvetleaf plant response rating: 0 to 100 scale (0 no effect, 100 complete control)
How it was run: as §1

[7] = test system: giant foxtail (Setaria faberii); assay: Test B pre-/postemergence plant response; conditions: for Foxtail, Giant plant response rating: 0 to 100 scale (0 no effect, 100 complete control)
How it was run: as §1

[8] = test system: barnyardgrass (Echinochloa crus-galli); assay: Test C flooded paddy test plant response; conditions: Flood, 250 g ai/ha; scale of 0 to 100 where 0 is no effect and 100 is complete control; 13 to 15 days
How it was run: (§2)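 Plants grown to 2-leaf stage, flooded 3 cm above soil; compounds applied directly into paddy water, depth kept throughout. Visual rating versus controls after 13 to 15 days in greenhouse, 0 (no effect) to 100 (complete control).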

rice (Oryza sativa) = assay: Test C flooded paddy test plant response; conditions: Flood, 250 g ai/ha; scale of 0 to 100 where 0 is no effect and 100 is complete control; 13 to 15 days
How it was run: as §2

[9] = test system: ducksalad (Heteranthera limosa); assay: Test C flooded paddy test plant response; conditions: Flood, 250 g ai/ha; scale of 0 to 100 where 0 is no effect and 100 is complete control; 13 to 15 days
How it was run: as §2

[10] = test system: small-flower umbrella sedge (Cyperus difformis); assay: Test C flooded paddy test plant response; conditions: Flood, 250 g ai/ha; scale of 0 to 100 where 0 is no effect and 100 is complete control; 13 to 15 days
How it was run: as §2

[11] = 125 g ai/ha, postemergence, 0 to 100 scale, 0 no effect, 100 complete control
[12] = 500 g ai/ha, postemergence, 0 to 100 scale, 0 no effect, 100 complete control
[13] = Preemergence, 500 g ai/ha, 0 to 100 scale where 0 is no effect and 100 is complete control

Compound | Plant response rating, Barnyardgrass [1, 11] | Plant response rating, Barnyardgrass [1, 12] | Barnyardgrass plant response rating ([1]; Preemergence, 125 g ai/ha) | Plant response rating, Barnyardgrass [1, 13] | Plant response rating, Corn (corn (Zea mays); [11]) | Plant response rating, Corn (corn (Zea mays); [12]) | Corn plant response rating (corn (Zea mays); Preemergence, 125 g ai/ha) | Plant response rating, Corn (corn (Zea mays); [13]) | Plant response rating, Morningglory [2, 11] | Plant response rating, Morningglory [2, 12] | Morningglory plant response rating ([2]; Preemergence, 125 g ai/ha) | Plant response rating, Morningglory [2, 13] | Plant response rating, Crabgrass, Large [3, 11] | Plant response rating, Crabgrass, Large [3, 12] | Crabgrass, Large plant response rating ([3]; Preemergence, 125 g ai/ha) | Plant response rating, Crabgrass, Large [3, 13] | Plant response rating, Wheat [4, 11] | Plant response rating, Wheat [4, 12] | Wheat plant response rating ([4]; Preemergence, 125 g ai/ha) | Plant response rating, Wheat [4, 13] | also measured
N#Cc1cccc(Oc2ncc(Cl)cn2)c1-c1ccc(Cl)cn1 [Compound 202] | 10 | 40 | 10 | 80 | 0 | 30 | 0 | 0 | 10 | 40 | 0 | 20 | 10 | 70 | 90 | 100 | 0 | 0 | 0 | 20 | Plant response rating, Pigweed [5, 11]: 90; Plant response rating, Pigweed [5, 12]: 100; Pigweed plant response rating ([5]; Preemergence, 125 g ai/ha): 100; Plant response rating, Pigweed [5, 13]: 100; Plant response rating, Velvetleaf [6, 11]: 10; Plant response rating, Velvetleaf [6, 12]: 30; Velvetleaf plant response rating ([6]; Preemergence, 125 g ai/ha): 0; Plant response rating, Velvetleaf [6, 13]: 60; Plant response rating, Foxtail, Giant [7, 11]: 30; Plant response rating, Foxtail, Giant [7, 12]: 80; Foxtail, Giant plant response rating ([7]; Preemergence, 125 g ai/ha): 70; Plant response rating, Foxtail, Giant [7, 13]: 100; Barnyardgrass plant response rating [8]: 0; Rice plant response rating (rice (Oryza sativa)): 0; Ducksalad plant response rating [9]: 80; Sedge, Umbrella plant response rating [10]: 80
Clc1ccc(-c2ccc(Br)cc2Oc2ncc(Cl)cn2)nc1 [Compound 203] | 0 | 0 | 0 | 0 | 0 | 0 | 0 | 0 | 0 | 0 | 0 | 0 | 0 | 0 | 0 | 0 | 0 | 0 | 0 | 0 | Plant response rating, Pigweed [5, 11]: 0; Plant response rating, Pigweed [5, 12]: 0; Pigweed plant response rating ([5]; Preemergence, 125 g ai/ha): 0; Plant response rating, Pigweed [5, 13]: 0; Plant response rating, Velvetleaf [6, 11]: 0; Plant response rating, Velvetleaf [6, 12]: 0; Velvetleaf plant response rating ([6]; Preemergence, 125 g ai/ha): 0; Plant response rating, Velvetleaf [6, 13]: 0; Plant response rating, Foxtail, Giant [7, 11]: 0; Plant response rating, Foxtail, Giant [7, 12]: 0; Foxtail, Giant plant response rating ([7]; Preemergence, 125 g ai/ha): 0; Plant response rating, Foxtail, Giant [7, 13]: 0; Barnyardgrass plant response rating [8]: 0; Rice plant response rating (rice (Oryza sativa)): 0; Ducksalad plant response rating [9]: 0; Sedge, Umbrella plant response rating [10]: 0
N#Cc1cccc(Oc2ncc(Br)cn2)c1-c1ccc(Cl)cn1 [Compound 204] | 0 | 10 | 0 | 30 | 0 | 0 | 0 | 0 | 0 | 10 | 0 | 10 | 10 | 40 | 90 | 100 | 0 | 0 | 0 | 0 | Plant response rating, Pigweed [5, 11]: 50; Plant response rating, Pigweed [5, 12]: 90; Pigweed plant response rating ([5]; Preemergence, 125 g ai/ha): 100; Plant response rating, Pigweed [5, 13]: 100; Plant response rating, Velvetleaf [6, 11]: 0; Plant response rating, Velvetleaf [6, 12]: 10; Velvetleaf plant response rating ([6]; Preemergence, 125 g ai/ha): 0; Plant response rating, Velvetleaf [6, 13]: 60; Plant response rating, Foxtail, Giant [7, 11]: 0; Plant response rating, Foxtail, Giant [7, 12]: 30; Foxtail, Giant plant response rating ([7]; Preemergence, 125 g ai/ha): 60; Plant response rating, Foxtail, Giant [7, 13]: 100; Barnyardgrass plant response rating [8]: 0; Rice plant response rating (rice (Oryza sativa)): 0; Ducksalad plant response rating [9]: 0; Sedge, Umbrella plant response rating [10]: 0
Clc1ccc(-c2c(I)cccc2Oc2ncc(Cl)cn2)nc1 [Compound 205] | 0 | 10 | 0 | 10 | 0 | 10 | 0 | 0 | 0 | 10 | 0 | 0 | 10 | 20 | 30 | 70 | 0 | 0 | 0 | 0 | Plant response rating, Pigweed [5, 11]: 60; Plant response rating, Pigweed [5, 12]: 90; Pigweed plant response rating ([5]; Preemergence, 125 g ai/ha): 10; Plant response rating, Pigweed [5, 13]: 90; Plant response rating, Velvetleaf [6, 11]: 0; Plant response rating, Velvetleaf [6, 12]: 10; Velvetleaf plant response rating ([6]; Preemergence, 125 g ai/ha): 0; Plant response rating, Velvetleaf [6, 13]: 0; Plant response rating, Foxtail, Giant [7, 11]: 0; Plant response rating, Foxtail, Giant [7, 12]: 20; Foxtail, Giant plant response rating ([7]; Preemergence, 125 g ai/ha): 20; Plant response rating, Foxtail, Giant [7, 13]: 70; Barnyardgrass plant response rating [8]: 0; Rice plant response rating (rice (Oryza sativa)): 0; Ducksalad plant response rating [9]: 0; Sedge, Umbrella plant response rating [10]: 0
Fc1cnc(Oc2ccccc2-c2cc(C(F)(F)F)on2)nc1 [Compound 206] | 0 | 10 | 0 | 30 | 0 | 0 | 0 | 0 | 20 | 30 | 0 | 0 | 10 | 20 | 10 | 60 | 0 | 0 | 0 | 0 | Plant response rating, Pigweed [5, 11]: 40; Plant response rating, Pigweed [5, 12]: 70; Pigweed plant response rating ([5]; Preemergence, 125 g ai/ha): 50; Plant response rating, Pigweed [5, 13]: 80; Plant response rating, Velvetleaf [6, 11]: 30; Plant response rating, Velvetleaf [6, 12]: 60; Velvetleaf plant response rating ([6]; Preemergence, 125 g ai/ha): 30; Plant response rating, Velvetleaf [6, 13]: 40; Plant response rating, Foxtail, Giant [7, 11]: 0; Plant response rating, Foxtail, Giant [7, 12]: 20; Foxtail, Giant plant response rating ([7]; Preemergence, 125 g ai/ha): 10; Plant response rating, Foxtail, Giant [7, 13]: 60; Barnyardgrass plant response rating [8]: 0; Rice plant response rating (rice (Oryza sativa)): 0; Ducksalad plant response rating [9]: 70; Sedge, Umbrella plant response rating [10]: 70
N#Cc1cccc(Oc2ncc(F)cn2)c1-c1ccc(Cl)cn1 [Compound 207] | 0 | 70 | 10 | 90 | 0 | 0 | 0 | 0 | 10 | 30 | 0 | 30 | 0 | 30 | 100 | 100 | 0 | 0 | 0 | 0 | Plant response rating, Pigweed [5, 11]: 70; Plant response rating, Pigweed [5, 12]: 100; Pigweed plant response rating ([5]; Preemergence, 125 g ai/ha): 90; Plant response rating, Pigweed [5, 13]: 100; Plant response rating, Velvetleaf [6, 11]: 10; Plant response rating, Velvetleaf [6, 12]: 60; Velvetleaf plant response rating ([6]; Preemergence, 125 g ai/ha): 0; Plant response rating, Velvetleaf [6, 13]: 30; Plant response rating, Foxtail, Giant [7, 11]: 0; Plant response rating, Foxtail, Giant [7, 12]: 30; Foxtail, Giant plant response rating ([7]; Preemergence, 125 g ai/ha): 70; Plant response rating, Foxtail, Giant [7, 13]: 100; Barnyardgrass plant response rating [8]: 0; Rice plant response rating (rice (Oryza sativa)): 0; Ducksalad plant response rating [9]: 30; Sedge, Umbrella plant response rating [10]: 30

— patent US10131652B2, “Pyrimidinyloxy benzene derivatives as herbicides” (E. I. DU PONT DE NEMOURS AND COMPANY, priority 2014, dated 2018)
